# Experimental data taken from patent US20160184322A1 (priority 2013, published 2016).
# Where two headings read alike, the source gives them in different places.
# Experiments:
# severe TBI patients = details: six months; cited from earlier work
# glutathione reductase [1] = experiment: Glutathione reductase assay in rat model of mTBI (three repeated impacts); assay type: in vivo, Sprague Dawley rats; details: 16 mg/kg intraperitoneal 15 minutes after last impact; tissue 24 hours after drug; one-way ANOVA p=0.675
# Description: Glutathione reductase assay was used to measure the antioxidant capacity of PRV-001. Glutathione reductase (GR) is an enzyme which catalyzes the reduction of glutathione (GSSR) to reduced glutathione (GSH). GSH is an important intracellular antioxidant that reacts with oxygen free radicals which are harmful to the cell. High GSH to GSSR ratio is important to cellular survival and GR catalyzes the reduction, therefore becoming an important indicator of antioxidant capacity.
# Sprague Dawley rats were obtained from Charles River Laboratories and subjected to three repeated impacts spaced 20 minutes apart. Prior to surgery, animals were anesthetized via inhalation with an initial induction with 5% isofluorane with oxygen at a rate of […] a Matrix 3000 Isofluorane Vaporizer (Midmark, Versailles, Ohio). […] The animal's scalp was shaved and cleaned with a 70% isopropanol solution and 10% betadine solution (Med-Vet International, Mettawa, Ill.). During the surgery, anesthesia was maintained at 2.5% isofluorane with oxygen at a rate of 500-1000 mL/min. The animal's head was then secured in a stereotaxic apparatus (David Kopf Instruments, Tujanga, Calif.) and a medial incision was performed and the scalp pulled back with bulldogs clips over the right frontal and parietal bone. […]
# [2] = males; cited from earlier work
# SH-SY5Y cells [3] = experiment: LDH release after t-BOOH-induced oxidative stress; assay type: cell-based; details: 25 μM t-BOOH 6 hours, 24 hours pre-treatment 1-80 μM; for LDH release following exposure to oxidative stress, group differences: ANOVA p=0.214
# [4] = tested on: moderate to severe TBI patients; details: cited from earlier work
# [5] = tested on: rats that have suffered a concussion; experiment: Morris Water Maze latency to platform in mTBI (concussion) model (FIG. 8); assay type: in vivo, rat; details: vs vehicle-injured rats
# SH-SY5Y cells [6] = experiment: Lactate dehydrogenase release after oxygen and glucose deprivation (OGD); assay type: cell-based; details: for most effective concentrations to attenuate OGD-induced LDH release: both the 0 and 24 hour post-OGD time points
# rats suffering from TBI = details: cited from earlier work; for brain water content (measure of edema): 72 hours post-injury, ent-Prog 16 mg/kg
# rodents following injury = details: cited from earlier work; for most beneficial concentration for reducing edema, inflammation, oxidative stress and cell death within the penumbral region: IP, moderate to severe TBI model, 72 hours following injury
# [7] = target: T1, classical progesterone receptor (PR) (Homo sapiens, UniProt P06401); details: cited from earlier work
# T1 sequence (P06401 1-933): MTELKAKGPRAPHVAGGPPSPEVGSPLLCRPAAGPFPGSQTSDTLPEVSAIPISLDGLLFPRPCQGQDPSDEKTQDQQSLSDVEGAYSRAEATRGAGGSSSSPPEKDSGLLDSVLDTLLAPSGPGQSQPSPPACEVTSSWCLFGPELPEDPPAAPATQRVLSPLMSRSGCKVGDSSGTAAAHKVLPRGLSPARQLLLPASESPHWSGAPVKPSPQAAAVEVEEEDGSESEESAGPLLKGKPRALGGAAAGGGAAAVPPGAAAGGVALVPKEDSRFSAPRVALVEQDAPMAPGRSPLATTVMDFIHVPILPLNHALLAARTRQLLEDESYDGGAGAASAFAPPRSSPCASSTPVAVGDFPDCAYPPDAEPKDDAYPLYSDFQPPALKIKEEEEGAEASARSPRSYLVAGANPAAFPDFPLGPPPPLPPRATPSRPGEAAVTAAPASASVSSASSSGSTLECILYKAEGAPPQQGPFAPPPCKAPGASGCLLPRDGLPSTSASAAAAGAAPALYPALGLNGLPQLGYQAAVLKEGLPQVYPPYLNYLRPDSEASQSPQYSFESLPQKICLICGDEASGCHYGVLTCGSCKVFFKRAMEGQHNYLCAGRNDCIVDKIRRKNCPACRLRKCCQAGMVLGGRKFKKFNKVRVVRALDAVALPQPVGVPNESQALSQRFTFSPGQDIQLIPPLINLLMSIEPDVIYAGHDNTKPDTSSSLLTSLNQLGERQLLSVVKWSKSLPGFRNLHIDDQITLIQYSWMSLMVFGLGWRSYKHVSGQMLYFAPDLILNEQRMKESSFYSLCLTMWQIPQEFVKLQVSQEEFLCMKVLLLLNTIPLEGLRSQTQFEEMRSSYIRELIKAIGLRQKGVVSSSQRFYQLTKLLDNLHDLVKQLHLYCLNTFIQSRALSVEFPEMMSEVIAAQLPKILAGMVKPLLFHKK
# glutathione reductase [8] = details: 72 hours post-injury, compared to all other groups, p<0.01; cited from earlier work
compound,measurement,setting,value
"CC(=O)[C@H]1CC[C@H]2[C@@H]3CCC4=CC(=O)CC[C@]4(C)[C@H]3CC[C@]12C [Prog, progesterone]",neurological outcomes long-term,severe TBI patients,better neurological outcomes
same,"glutathione reductase activity (Δ Absorbance 340 nm/min), difference between groups",glutathione reductase [1],failed to reveal a significant difference
same,conversion of testosterone to dihydrotestosterone,[2],inhibits
same,size of reproductive organs,[2],reduces
same,spermatogenesis,[2],suppresses
same,"oxidative stress-induced cellular damage and death (LDH release), trend",SH-SY5Y cells [3],trend towards amelioration
same,"LDH release following exposure to oxidative stress, group differences",SH-SY5Y cells [3],significant group differences were not observed
same,30 days post-injury outcomes (Glasgow Outcome Scale-Extended and Disability Rating Scale),[4]; moderate TBI patients,better outcomes
same,reduction in mortality,"[4]; moderate to severe TBI patients, 72 hours of continuous intravenous Prog",50%
same,30 days post-injury outcomes (Glasgow Outcome Scale-Extended and Disability Rating Scale),[4]; patients with severe brain injuries,little measurable difference
same,latency to platform (Morris Water Maze),[5]; post-acutely (15 minutes post),decreases latency to platform
same,latency to platform (Morris Water Maze),[5]; prophylactically (15 minutes prior),decreases latency to platform
same,LDH release compared to other treated groups,SH-SY5Y cells [6],significant reduction
same,"promoting cellular survival following oxygen and glucose deprivation, PRV-001 compared with progesterone",SH-SY5Y cells [6],equally effective
same,LDH release compared to other treated groups,"SH-SY5Y cells [6]; 0 h post-OGD, 1 μM progesterone vs 80 uM progesterone",significant reduction
same,LDH release compared to other treated groups,"SH-SY5Y cells [6]; 0 h post-OGD, 10 μM progesterone vs 80 μM progesterone",significant reduction
same,LDH release compared to control cells that did not undergo OGD,"SH-SY5Y cells [6]; 0 h post-OGD, 20 μM and 80 μM progesterone",significantly higher
same,LDH release compared to other treated groups,"SH-SY5Y cells [6]; 0 h post-OGD, 20 μM progesterone vs 80 μM progesterone",significant reduction
same,LDH release compared to control cells not exposed to OGD,"SH-SY5Y cells [6]; 0 h post-OGD, 1, 5, 10 and 40 μM progesterone",not significantly different
same,LDH release compared to untreated cells exposed to OGD,"SH-SY5Y cells [6]; 0 h post-OGD, all progesterone concentrations except 80 μM",significant reduction
same,LDH release compared to control cells not exposed to OGD,"SH-SY5Y cells [6]; 24 hours post-OGD, 1 μM and 40 μM progesterone",increased
same,LDH release compared to other treated groups,"SH-SY5Y cells [6]; 24 hours post-OGD, 10 μM progesterone vs 40 μM progesterone",significant reduction
same,LDH release compared to untreated cells exposed to OGD,"SH-SY5Y cells [6]; 24 hours post-OGD, 40 μM progesterone",except for those treated with 40 μM progesterone
same,LDH release compared to other treated groups,"SH-SY5Y cells [6]; 24 hours post-OGD, 80 μM progesterone vs 40 μM progesterone",significant reduction
same,LDH release compared to control cells not exposed to OGD,"SH-SY5Y cells [6]; 24 hours post-OGD, 5, 10, 20 and 80 μM progesterone",not significantly different
same,LDH release compared to untreated cells exposed to OGD,"SH-SY5Y cells [6]; 24 hours post-OGD, all progesterone groups except 40 μM",significant reduction
same,most effective concentrations to attenuate OGD-induced LDH release,SH-SY5Y cells [6],5 µM and 10 µM
same,brain water content (measure of edema),rats suffering from TBI,normalizes brain water content
same,"most beneficial concentration for reducing edema, inflammation, oxidative stress and cell death within the penumbral region",rodents following injury,16 mg/kg
same,edema,rodents following injury; both rodent sexes following injury,effectively attenuates
same,inflammatory factors (TNF-a and IL-10),rodents following injury; following injury,inhibiting
same,presence of factors of cell death (caspase-3) and gliosis (GFAP),rodents following injury; following injury,decreased
same,Neurological Severity Score (motor and cognitive functioning),rodents following injury; rats following injury,significant improvements
"CC(=O)[C@@H]1CC[C@@H]2[C@H]3CCC4=CC(=O)CC[C@@]4(C)[C@@H]3CC[C@]21C [ent-Prog, ent-progesterone]","glutathione reductase activity (Δ Absorbance 340 nm/min), difference between groups",glutathione reductase [1],failed to reveal a significant difference
same,activation of the classical progesterone receptor (PR),[7],does not activate
same,anti-oxidant activity of glutathione reductase,glutathione reductase [8],significantly increases
same,"oxidative stress-induced cellular damage and death (LDH release), trend",SH-SY5Y cells [3],trend towards amelioration
same,"LDH release following exposure to oxidative stress, group differences",SH-SY5Y cells [3],significant group differences were not observed
same,LDH release compared to control cells that did not undergo OGD,SH-SY5Y cells [6],significantly higher
same,LDH release compared to other treated groups,SH-SY5Y cells [6],significant reduction
same,LDH release compared to untreated cells exposed to OGD,SH-SY5Y cells [6],significant reduction
same,"promoting cellular survival following oxygen and glucose deprivation, PRV-001 compared with progesterone",SH-SY5Y cells [6],equally effective
same,most effective concentrations to attenuate OGD-induced LDH release,SH-SY5Y cells [6],5 µM and 10 µM
same,brain water content (measure of edema),rats suffering from TBI,normalizes brain water content
same,"reduction of moderate to severe brain injury-induced edema, compared with Prog",rats suffering from TBI; moderate to severe TBI,equal efficacy to Prog
same,"most beneficial concentration for reducing edema, inflammation, oxidative stress and cell death within the penumbral region",rodents following injury,16 mg/kg
CC(=O)[C@H]1CC[C@H]2[C@@H]3CC[C@H]4C[C@H](O)CC[C@]4(C)[C@H]3CC[C@]12C [allopregnanolone],brain water content (measure of edema),rats suffering from TBI,normalizes brain water content
same,presence of factors of cell death (caspase-3) and gliosis (GFAP),rodents following injury; following injury,decreased
